The values below come from patent US11149035B2, “Chemical compounds as H—PGDS inhibitors” (GlaxoSmithKline Intellectual Property Development Limited, priority 2017, dated 2021).

The structures appear in SMILES notation.

In test [1] the test system is limb muscle injury in male C57Bl/6N mice. Description: In vivo assay for functional response to muscle injury (eccentric contraction-induced muscle fatigue). The following applies: FIG. 1. On the set-up: species or system mouse. An excerpt: Under anesthesia, the right hind limb of a mouse is restrained at the knee and the foot attached to a motorized footplate/force transducer. Needle electrodes are inserted into the upper limb, either side of the sciatic nerve and a current sufficient to elicit a maximal muscle contraction is applied. Muscle tension is produced by moving the footplate to lengthen the plantarflexor muscles while the limb is under maximal stimulation. This is repeated 60 times to fatigue the muscles of the lower limb. Anesthesia, limb immobilization and limb stimulation are then repeated at regular intervals to measure maximal isometric force in the recovering limb. 7 to 9 animals are tested for each test condition.

Test [2] concerns prostaglandin D2 generation following 48/80-induced mast cell degranulation. The test can be described thus: In vivo mast cell activation (compound 48/80-induced degranulation, PGD2 in peritoneal lavage by LC/MS/MS). More on the design: species or system mouse. The following applies: normal C57Bl6/N mice; oral 0.1-10 mg/kg ~1 hour prior to 48/80 i.p.; peritoneal lavage 7 minutes afterwards; FIG. 2. The protocol:
Mice were randomized by body weight into 8 groups (n=8): Vehicle (0.5% HPML with 0.1% Tween80)+phosphate buffered saline (PBS), vehicle+compound 48/80 (0.75 mg/ml) and compound 48/80+Example 21 at various doses ranging from 0.1 mg/kg to 10 mg/kg.
C57BL mice were dosed orally with vehicle, or Example 21 at 0.1, 0.3, 1, 3, & 10 mg/kg. One hour later, blood samples were withdrawn via tail snip for measurement of drug levels, and mice were then terminally anesthetized with 2% isoflurane and given an intraperitoneal injection of 0.2 mL PBS or compound 48/80 solution (0.75 mg/mL, Sigma), followed by gentle massage of the abdomen. Mice were kept under anesthesia for 7 minutes prior to euthanasia. […]
Samples were thawed at room temperature and vortex-mixed. […] The plate was vortex-mixed for 30 seconds at 1000 rpm and analyzed by LC/MS/MS.
The analytical system consisted of a CTC HTS PAL autoinjector (Leap, Carrboro, N.C.), an Agilent 1290 Infinity binary pump and thermostated column compartment (Agilent Technologies, Santa Clara, Calif.) and an AB Sciex QTRAP 5500 mass spectrometer (AB Sciex, Framingham, Mass.). […] The analytes were detected by multiple reaction monitoring (MRM) in negative mode using Turbolon spray with the transitions of m/z 351/271 amu for PGD2/PGE2 and m/z 360/280 amu for PGD2-d9/PGE2-d9. […]

Take `CC(C)(O)[C@H]1CC[C@H](NC(=O)c2cnc3nc(C4CC4)ccc3c2)CC1` [Example 21, 7-Cyclopropyl-N-((trans)-4-(2-hydroxypropan-2-yl)cyclohexyl)-1,8-naphthyridine-3-carboxamide]: the “kinetics of recovery of maximal isometric force after injury” value in test [1] (PO 3 and 10 mg/kg QD beginning 10 min prior to eccentric contraction challenge) was “acceleration in the kinetics of recovery”. The “initial magnitude of the injury (isometric limb force 24 hours following protocol initiation)” value in test [1] (PO 3 and 10 mg/kg QD, 24 hours) was “reduced the initial magnitude of the injury”. The “48/80-induced PGD2 generation in lavage fluid” value in test [2] is listed as “prevents 48/80-induced PGD2 generation”.
